Test results: patent publication US20050182025A1, “Amidinylphenyl compounds and their use as fungicides” (priority 2002, published 2005)

Columns and labels:
Format in all cases: in vivo
[1] = tested on: Erysiphe graminis f. sp. tritici; experiment: Test A: preventive spray on wheat seedlings, wheat powdery mildew, disease rating; settings: wheat seedlings sprayed to run-off, inoculated the following day with Erysiphe graminis f. sp. tritici, rated after 7 days at 20° C.; test concentration not given
Text: General protocol for preparing test suspensions: Test compounds were first dissolved in acetone in an amount equal to 3% of the final volume and then suspended at the desired concentration (in ppm) in acetone and purified water (50/50 mix) containing 250 ppm of the surfactant Trem® 014 (polyhydric alcohol esters). The resulting test suspensions were then used in the following tests. Spraying a 200 ppm test suspension to the point of run-off on the test plants was the equivalent of a rate of 500 g/ha. The test suspension was sprayed to the point of run-off on wheat seedlings. The following day the seedlings were inoculated with a spore dust of Erysiphe graminis f. sp. tritici, (the causal agent of wheat powdery mildew) and incubated in a growth chamber at 20° C. for 7 days, after which disease ratings were made. Results for Tests A-C are given in Table A. In the table, a rating of 100 indicates 100% disease control and a rating of 0 indicates no disease control (relative to the controls). A dash (-) indicates no test results.

Puccinia recondita = experiment: Test B: preventive spray on wheat seedlings, wheat leaf rust, disease rating; settings: wheat seedlings sprayed to run-off, inoculated the following day with Puccinia recondita, 24 h saturated atmosphere then 6 days at 20° C.; test concentration not given
Text: (§1) General protocol for preparing test suspensions: Test compounds were first dissolved in acetone in an amount equal to 3% of the final volume and then suspended at the desired concentration (in ppm) in acetone and purified water (50/50 mix) containing 250 ppm of the surfactant Trem® 014 (polyhydric alcohol esters). The resulting test suspensions were then used in the following tests. Spraying a 200 ppm test suspension to the point of run-off on the test plants was the equivalent of a rate of 500 g/ha. The test suspension was sprayed to the point of run-off on wheat seedlings. The following day the seedlings were inoculated with a spore suspension of Puccinia recondita (the causal agent of wheat leaf rust) and incubated in a saturated atmosphere at 20° C. for 24 h, and then moved to a growth chamber at 20° C. for 6 days, after which disease ratings were made. Results for Tests A-C are given in Table A. In the table, a rating of 100 indicates 100% disease control and a rating of 0 indicates no disease control (relative to the controls). A dash (-) indicates no test results.

Septoria nodorum = experiment: Test C: preventive spray on wheat seedlings, Septoria glume blotch, disease rating; settings: wheat seedlings sprayed to run-off, inoculated the following day with Septoria nodorum, 48 h saturated atmosphere then 9 days at 20° C.; test concentration not given
Text: as §1, with “Septoria nodorum” for “Puccinia recondita”, “Septoria glume blotch)” for “wheat leaf rust)”, “48” for “24”, “9” for “6”

Row | Compound | Test A disease control rating (100 = 100% disease control, 0 = no disease control relative to the controls) [1] [%] | Test B disease control rating (100 = 100% disease control, 0 = no disease control relative to the controls) (Puccinia recondita) [%] | Test C disease control rating (100 = 100% disease control, 0 = no disease control relative to the controls) (Septoria nodorum) [%]
1 | Cc1cc(OCCCC(C)(C)C)c(C)cc1NC(=S)N(C)C [compound 192] | 99 | 100 | 100
2 | CCCCC(CCC)Sc1cc(C)c(N=CN(C)C)cc1C (stereo not drawn) [compound 141] | 0 | 99 | 100
3 | Cc1cc(OCC=CC(C)(C)C)c(C)cc1N=CN(C)C [Compound 40] | 97 | 100 | 100
4 | CCN(CC)C(=S)Nc1cc(Cl)c(OCCCC(C)C)c(Cl)c1C [compound 117] | 29 | 37 | 60
5 | CCN(C)C(=S)Nc1cc(Cl)c(OCCCC(C)C)cc1C [compound 112] | 95 | 99 | 99
6 | Cc1cc(NC(=O)N(C)CC(C)(C)C)c(C)cc1N=CN(C)C [compound 193] | 0 | 23 | 0
7 | Cc1cc(NC(=S)N(C)C)c(C)c(Cl)c1OCCCC(C)(C)C [compound 138] | 98 | 74 | 60
8 | COC(=O)C(=Nc1cc(C)c(OCCC[Si](C)(C)C)cc1C)N(C)C [compound 128] | 98 | 95 | 73
9 | Cc1cc(OCCC(C)(C)C)c(C)cc1N=CN(C)C [Compound 12] | 97 | 100 | 80
10 | CC(=Nc1cc(Cl)c(OCCCC(C)C)cc1C)N(C)C [compound 110] | 42 | 97 | 99
11 | Cc1cc(OC(CCC(C)C)CCC(C)C)c(C)cc1N=CN(C)C [Compound 35] | 95 | 100 | 100
12 | Cc1cc(OCCOC(C)(C)C)c(C)cc1N=CN(C)C [Compound 41] | 79 | 99 | 47
13 | CCCCC(CCCC)Oc1cc(C)c(N=CN(C)C)cc1C [Compound 28, N′-[4-[(1-Butylpentyl)oxy]-2,5-dimethylphenyl]-N,N-dimethylmethanimidamide] | 0 | 97 | 0
14 | CCN(C)C(=S)Nc1cc(Cl)c(OCCC[Si](C)(C)CC)cc1C [compound 84] | 100 | 100 | 100
15 | CCN(C(=S)Nc1cc(Cl)c(OCCCC(C)C)cc1Cl)C(C)C [compound 127] | 0 | 99 | 100
16 | Cc1cc(NC(=O)NCC(C)C)c(C)cc1N=CN(C)C [compound 189] | 0 | 9 | 0
17 | CCCC(CCC)Oc1cc(C)c(N=C(C)N(C)C)cc1C [compound 101] | 100 | 100 | 100
18 | CCCN(C)C=Nc1cc(C(C)C)c(OCCC[Si](C)(C)C)cc1C [compound 75] | 100 | 100 | 100
19 | Cc1cc(SCCCC(C)C)c(C)cc1N=CN(C)C [compound 156] | 93 | 100 | 100
20 | CCN(C)C=Nc1cc(C)c(OCCCC(C)(C)C)c(Cl)c1C [compound 201] | 100 | 100 | 100
21 | CC(=Nc1cc(C)c(OC(CCC(C)C)CCC(C)C)cc1C)N(C)C [compound 103] | 31 | 0 | 0
22 | CCC(CCC(C)C)Oc1cc(C)c(N=CN(C)C)cc1C (stereo not drawn) [Compound 31] | 93 | 100 | 53
23 | C=C(C)CCC(CC)Oc1cc(C)c(N=C(C)N(C)C)cc1C (stereo not drawn) [compound 104] | 0 | 23 | 0
24 | Cc1cc(OCCCC(C)(C)C)c(Cl)cc1N=CN(C)C [compound 175] | 97 | 100 | 100
25 | CC(C)=CCCC(C)=CCCC(C)=CCOc1cc(C)c(N=CN(C)C)cc1C [Compound 3] | 0 | 87 | 0
26 | CCN(C)C(=S)Nc1cc(Cl)c(OCCCC(C)(C)C)cc1C [compound 178] | 100 | 100 | 100
27 | Cc1cc(OCCC[Si](C)(C)C)c(Cl)cc1NC(=S)N(C)C [compound 168] | 99 | 100 | 100
